“Also recorded” adds a separate entry of the source. Where a name gives a salt, the structure may show the parent alone.
Experiments:
MDA231-LeptoM cells = test: In vivo leptomeningeal metastasis assay, MDA231-LeptoM model, intracisternal chelator treatment; set-up: species or system mouse; details: for Median Survival: every 3 days; for [Fe]: total iron in CSF
Procedure: FIG. 15A-15G. LCN2 transports iron to support cancer cell growth. (A) Tumor growth in mice injected with MDA231-LeptoM cells expressing shCtl or shLCN2. Treatment with either vehicle or 5 mg/mL holo-transferrin (diferric [Tf]) began on day 1 and continued every third day for a total of 7 doses. Left: Histogram represents in vivo BLI imaging post-inoculation at day 21. n=8-10 per group in each of two independent experiments. Right: Representative BLI images. ** indicates p<0.01 (unpaired t test). Data represent mean±SEM. (B) Kaplan-Meier survival curve of LeptoM groups from (A). sh1+Veh vs sh1+Tf, p<0.0001. sh2+Veh vs sh2+Tf, p<0.0001. (C) Soluble iron concentration from macrophages collected from CSF in lipopolysaccharide (LPS)-stimulated, LeptoM or LeptoM-shLCN2 (sh1 and sh2) mouse model at day 14. Soluble iron was measured by mass spectroscopy. n=4 per group. ** indicates p<0.01, *** indicates p<0.001, **** indicates p<0.0001 (unpaired t test). Data represent mean±SEM. (D and E) Phagocytosis (D) and reactive oxygen species (ROS) generation (E) in CSF-derived macrophages by flow cytometric analysis after LeptoM (LLC model), shLCN2 LPS, or vehicle (Ctl) treatment. Phagocytosis detected by FITC-labeled E. coli. CellROX Green^+ cells represent percent of live cells with ROS. n=12-15 (Ctl), n=4-5 (LPS), n=11-18 (LeptoM), n=8 (shLCN2). NS=not significant, * indicates p<0.05, ** indicates p<0.01, **** indicates p<0.0001 (unpaired t test). Data represent mean±SEM in two independent experiments. (F) Tumor growth in MDA231-LeptoM model after chelator treatment: deferoxamine (DFO), D-penicillamine (D-Pen) on […] (early) or day 7 (late); see also FIG. 16. Left: in vivo BLI imaging in day 28 post-inoculation. n=8-10 per group in each of two independent experiments. Right: Representative BLI images. **** indicates p<0.0001. Data represent mean±SEM. (G) Kaplan-Meier survival curve of mice treated in (F). p<0.0001.
(§1) FIG. 16A-16L. Iron chelator treatment reduces CSF iron. (A) Experimental scheme. Mice were inoculated with 2×10^3 cells intrathecally on day 0. Treatment with either vehicle, DFO, or D-pen was commenced on either day 1 or day 7 and continued every third day for a total of 7 doses. (B) Chelators delivered intrathecally. DFO, Deferoxamine. D-Pen, D-Penicillamine. (C-F) Intracellular iron (C and E) and viability (D and F) of PC9-LeptoM cells and MDA231-LeptoM cells after treatment with chelators in different concentrations (0 μM, 1 μM, 10 μM and 100 μM). n=3-4 per group in each of two independent experiments. * indicates p<0.05, ** indicates p<0.01, ***indicates p<0.001, **** indicates p<0.0001 (unpaired t test). Data represent mean±SEM. (G) Growth of PC9-LeptoM tumor after treatment indicated in (A). Left: in vivo BLI imaging in day 28 post-inoculation. n=8-10 per group in each of two independent experiments. Right: Representative BLI images. **** indicates p<0.0001. Data represent mean±SEM. (H) Kaplan-Meier survival curve from (C) and (E). p<0.0001. (I and J) Total iron concentration measured in CSF samples of mice with treatment of chelators in PC9-LeptoM Model (I) in MDA231-LeptoM model (J). NS=not significant, * indicates p<0.05, ** indicates p<0.01 (unpaired t test). Data represent mean±SEM. (K and L) Immune cell composition in CSF of LLC-LeptoM model with the treatment of vehicle, DFO, or D-pen at day 10. n=6 per group. NS=not significant, * indicates p<0.05, ** indicates p<0.01 (unpaired t test). Data represent mean±SEM.
In vivo leptomeningeal metastasis assays. To model leptomeningeal metastasis with a known consistent disease burden, 2×10^3 PC9, 2×10^3 MDA231, or 1×10^3 LLC Parental or LeptoM cells suspended in 10 μl PBS were injected into the cisterna magna of anesthetized mice. This procedure was tolerated well by the mice. Tumor progression was monitored by bioluminescence imaging (BLI) every 7 days after tumor cell inoculation, and mouse condition was monitored daily. […]

LLC-LeptoM model = test: Immune cell composition in CSF of LLC-LeptoM model (flow cytometry); assay type: in vivo, mouse; details: day 10, in words
Text: as §1
Flow cytometry analysis and sorting. For cytometric bead assay, CSF from control mice or mice bearing LLC LeptoM cells was collected on day 14 as described above. Levels of cytokines were measured using LEGENDplex Mouse Inflammation Panel (13-plex; 740446, Biolegend) as recommended by manufacturer in technical duplicates. Data was processed using LEGENDPlex Software (Biolegend). For flow cytometric analysis of CSF and meningeal cells, mice were transcardially perfused though left ventricle with saline using standard procedures (16). Then, CSF was collected by cisternal tap as described above. Next, cranial vault was removed, brain was collected and basilar meninges were washed with PBS. Surface of the brain and ventricular spaces were washed with PBS. CSF, cavity and brain washouts were pooled and processed for staining. For analysis of peripheral leukocytes, blood was collected from deeply anesthesized mice using cardiac puncture. Spleen was collected from perfused animals, minced, and mechanically dissociated using GentleMACS (Miltenyi Biotec). […] Phagocytic activity and respiratory burst were analyzed using E. coli Phagocytosis Assay Kit (FITC conjugate, Cayman Chemicals, 601370) and CellRox Green Flow Cytometry (Thermo Fisher, C10492), as recommended. […]

Structure (SMILES) | Median Survival (MDA231-LeptoM cells; MDA231-LeptoM model, intracisternal, start day not given) [days] | [Fe] (MDA231-LeptoM cells; MDA231-LeptoM model, start day not given) [µM] | number (percentage) of CSF macrophages (LLC-LeptoM model) | numbers of neutrophils, T cells and monocytes in CSF (LLC-LeptoM model) | iron concentration in the CSF compared to control mice (MDA231-LeptoM cells; MDA231-LeptoM model, day 28, in words) | [Fe] (MDA231-LeptoM cells; MDA231-LeptoM model, early (day 0)) [µM] | [Fe] (MDA231-LeptoM cells; MDA231-LeptoM model, late (day 7)) [µM] | Median Survival (MDA231-LeptoM cells; MDA231-LeptoM model, treatment begun early (day 0)) [days] | Median Survival (MDA231-LeptoM cells; MDA231-LeptoM model, treatment begun late (day 7)) [days] | dissemination of cancer cells over the spinal cord (MDA231-LeptoM cells; MDA231 mouse model, both early and late treatment groups, in words) | survival compared with vehicle control (MDA231-LeptoM cells; MDA231 mouse model, in words)
CC(C)(S)[C@@H](N)C(=O)O [D-Pen, D-penicillamine] | 28 ± 7 | 39.44 ± 2.43 | slightly reduced | not affected | – | – | – | – | – | – | –
CC(=O)N(O)CCCCCNC(=O)CCC(=O)N(O)CCCCCNC(=O)CCC(=O)N(O)CCCCCN [DFO, Deferoxamine mesylate] | – | – | slightly reduced; also recorded: only mildly reduced | not affected | profoundly decreased; also recorded: reduced CSF iron concentration to that of non-LeptoM control mice | 10.55 ± 1.31 | 9.19 ± 0.98 | 54.5 ± 5.5 | 38 ± 7 | impaired dissemination | conferred a survival benefit; also recorded: significant survival benefit

From patent US20240050385A1, “METHODS OF TREATING LEPTOMENINGEAL METASTASIS” (MEMORIAL SLOAN-KETTERING CANCER CENTER, priority 2020, published 2024)
